Entries after “also recorded” stand apart in the source; their conditions may differ.
Legend:
chiens [1] = assay: Cardiovascular tests in dogs, intraduodenal successive doses; type: in vivo, chien
Method: a) Quatre chiens (poids moyen : 13,8 kg) anesthésiés au nembutal reçoivent le CRL 41 250 par voie intraduodénale, aux doses successives de 0,1 mg/kg, 0,5 mg/kg, 1 mg/kg, 2,5 mg/kg, 5 mg/kg puis 10 mg/kg. On mesure la pression artérielle, la fréquence cardiaque, le débit artériel fémoral, le débit artériel vertébral, la température rectale et on observe la coloration de la peau.
a) Deux chiens (poids moyen : 14,5 kg) reçoivent le CRL 41 252 par voie intraduodénale, aux doses successives de 0,1 mg/kg, 0,5 mg/kg, 1 mg/kg, 2,5 mg/kg, 5 mg/kg, 10 mg/kg et 20 mg/kg. On mesure la pression artérielle, la fréquence cardiaque, le débit artériel fémoral, le débit artériel vertébral, les températures rectale et cutanée et on observe la coloration de la peau.

chiens [2] = assay: Influence on isoprenaline effects, dog; type: in vivo; details: chien
Excerpt: (§1) b) Sur les mêmes chiens on a étudié l'influence du produit vis à vis de l'isoprénaline et de la noradrénaline.
Avec 10,pg/kg I.V. d'isoprénaline la pression artérielle diastolique du CRL 41 252 passe de 128 à […] ([…] à 6,4 x 10^3 Pa), […]

chiens [3] = assay: Influence on noradrenaline hypertension, dog; type: in vivo; details: chien
Method: as §1
L'hyptertension à la noradrénaline (2 µg/kg I.V.) est augmentée par le CRL 41 252 ([…]), la pression artérielle systolique passe de 208 à 352 mmHg (soit environ de 2,77 x 10^4 à 4,7 x 10^4Pa) au lieu de 204 à 328 mmHg (soit environ de 2,71 à 4,3 x 10 Pa).

[4] = system: système nerveux central (SNC); assay: General statement of CNS (antidepressant, sedative) properties; type: in vivo
chiens [5] = assay: Cardiovascular tests in dogs, intraduodenal successive doses; type: in vivo; details: chien, injection I.M. de 10 mg/kg
[6] = chien, successive I.D. doses 0,1 to 20 mg/kg

CC(C)(C)NCC(SCC(N)=O)c1ccccc1F (racemic) [CRL 41 252, fumaratede [α-(tertiobutylaminométhyl)-2-fluorobenzyl]-thioacétamide]
pression artérielle et fréquence cardiaque (chiens [1]; [6]): n'a pas d'effet sur la pression artérielle ni sur la fréquence cardiaque | températures rectale et cutanée (chiens [1]; [6]): augmente les températures rectale et cutanée | débits fémoraux (chiens [1]; chien, voie intraduodénale, à partir de 10 mg/kg I.D.): augmente les débits fémoraux à partir de la dose de 10 mg/kg I.D. | effets vasodilatateurs (propriétés cardiovasculaires) (chiens [1]; general statement): effets vasodilatateurs intéressants; also recorded: effets vasodilatateurs bénéfiques | pression artérielle diastolique, before isoprénaline (chiens [2]; after dose cumulée 39,1 mg/kg I.D., control 152): 128 mmHg | fréquence cardiaque, before isoprénaline (chiens [2]; after dose cumulée 39,1 mg/kg I.D., control 192): 215 battements/ minute | effets de l'isoprénaline (chiens [2]; after dose cumulée de 39,1 mg/kg I.D.): légèrement diminués | pression artérielle diastolique, after isoprénaline (chiens [2]; isoprénaline 10,pg/kg I.V., after dose cumulée 39,1 mg/kg I.D., control 48): 58 mmHg | fréquence cardiaque, after isoprénaline (chiens [2]; isoprénaline 10,pg/kg I.V., after dose cumulée 39,1 mg/kg I.D., control 310): 302 battements/ minute | pression artérielle systolique, before noradrénaline (chiens [3]; after dose cumulée 39,1 mg/kg I.D., control 204): 208 mmHg | pression artérielle systolique, after noradrénaline (chiens [3]; noradrénaline 2 µg/kg I.V., after dose cumulée 39,1 mg/kg I.D., control 328): 352 mmHg | hypertension à la noradrénaline (chiens [3]; noradrénaline 2 µg/kg I.V., dose cumulée de 39,1 mg/kg I.D.): augmentée | propriétés antidépressives et sédatives [4]: propriétés antidépressives et sédatives | débits fémoraux (chiens [5]): cet effet étant confirmé par l'injection I.M. de 10 mg/kg
